This data set can be described thus: in vitro. The conditions noted are these: human, hela cells, % viability.
Regarding `Cc1ccc2nc(NCCC(=O)O)nc(-c3ccccc3)c2c1` [CBK266537], the viability at 28.5 h, 10 µM was 97.4%.

`COc1ccc(OCc2nn(-c3nc4ccccc4s3)c(N)c2-c2ccccc2)cc1` [CBK266539]: the viability at 28.5 h, 10 µM worked out at 98.5%.

Turning to `O=C(Nc1ccc(O)cc1C(=O)O)c1ccc2c(c1)C(=O)N(Cc1ccccc1)C2=O` [CBK266540], the viability at 28.5 h, 10 µM came out at 88.7%.

With `CC(Oc1ccc(Cl)cc1Cl)C(=O)Nc1ccc(OCC(=O)O)cc1` (centres unmarked) [CBK266542], the viability at 28.5 h, 10 µM was found to be 98.8%.

In the case of `Cc1c(C(=O)C2=C(O)C(=O)N(Cc3cccnc3)C2c2cccnc2)cnn1-c1ccccc1` (centres unmarked) [CBK266543], the viability at 28.5 h, 10 µM was 105%.

`COc1cc(NC(=O)c2ccc3c(c2)C(=O)N(Cc2ccccc2)C3=O)c(C(=O)O)cc1OC` [CBK266544]: the viability at 28.5 h, 10 µM was 106%.

Regarding `CC(=O)Nc1ccc(S(=O)(=O)N2CCN(S(=O)(=O)N(C)C)CC2)cc1` [CBK266545], the viability at 28.5 h, 10 µM was 95.9%.

Regarding `COc1ccc(NC(=O)CCCSc2nc(N)c3c(C)c(C)sc3n2)cc1` [CBK266547], the viability at 28.5 h, 10 µM is 105%.

`CCOc1ccccc1Nc1nc(N)nc(CN2CCCCC2C)n1` (centres unmarked) [CBK266548]: the viability at 28.5 h, 10 µM was found to be 105%.

Consider `Cc1ccc(S(=O)(=O)N(C)C)cc1NC(=O)C12CCC(C)(C(=O)C1)C2(C)C` (centres unmarked) [CBK266551], for which the viability at 28.5 h, 10 µM is 108%.

For `CCOC(=O)c1cc(NC(=O)CSc2nc3ccccc3[nH]2)ccc1Cl` [CBK266557], the viability at 28.5 h, 10 µM came out at 99.8%.

Regarding `CC1(C)CC(NC(=O)C23CCC(C)(c4nc5ccccc5nc42)C3(C)C)CC(C)(C)N1` (centres unmarked) [CBK266559], the viability at 28.5 h, 10 µM was found to be 99.3%.

Turning to `Cc1cc(Cl)c(S(=O)(=O)Nc2ccc(C#N)cc2)cc1OCC(N)=O` [CBK266560], the viability at 28.5 h, 10 µM was determined as 112%.

With `Cc1cc(C)nc(N(C#N)CC(=O)c2ccc(Br)cc2)n1` [CBK266562], the viability at 28.5 h, 10 µM is 91.3%.

As for `Cn1c(CSCc2ccccc2)nnc1SCC(=O)c1ccc(Br)cc1` [CBK266565], the viability at 28.5 h, 10 µM was 94.9%.

On to `O=C(CSC1c2ccccc2Oc2ccccc21)Nc1cccc(C(=O)O)c1` [CBK266566], for which the viability at 28.5 h, 10 µM stood at 97.9%.

With `CCOC(=O)c1c(NC(=O)CSc2n[nH]c(N)n2)sc2c1CCCCC2` [CBK266569], the viability at 28.5 h, 10 µM was 101%.

As to `O=c1c(-c2ccco2)[n+]([O-])c2ccccc2n1OCc1ccccn1` [CBK266570], the viability at 28.5 h, 10 µM worked out at 91.8%.

With `NS(=O)(=O)c1ccc(NC(=O)c2ccc(NC(=O)C3COc4ccccc4O3)cc2)cc1` (centres unmarked) [CBK266573], the viability at 28.5 h, 10 µM is 101%.

In the case of `O=C1c2ccc(-c3ccc4c(c3)C(=O)N(Cc3ccco3)C4=O)cc2C(=O)N1Cc1ccco1` [CBK266578], the viability at 28.5 h, 10 µM came out at 93.3%.

With `O=C(NCCOc1ccccc1Cc1ccccc1)c1cncc(Br)c1` [CBK266581], the viability at 28.5 h, 10 µM turned out to be 103%.

In the case of `Cc1cc(Cl)c(S(=O)(=O)Nc2ccc(Oc3ccccc3)cc2)cc1OCC(N)=O` [CBK266583], the viability at 28.5 h, 10 µM was found to be 99.8%.

Turning to `CCOc1ccc(C(=O)C2=C(O)C(=O)N(CCN(C)C)C2c2cccnc2)cc1Cl` (centres unmarked) [CBK266585], the viability at 28.5 h, 10 µM amounted to 96.5%.

Turning to `Oc1ccc(NCc2ccc(OCc3cccs3)cc2)cc1` [CBK266586], the viability at 28.5 h, 10 µM was 89%.

On to `O=C(O)c1ccc(NC(=O)c2cn(-c3ccccc3)nc2-c2cc3ccccc3o2)cc1` [CBK266587C], for which the viability at 28.5 h, 10 µM came out at 106%.

In the case of `CCCN1CCN(c2ncnc3scc(C4COc5ccccc5O4)c23)CC1` (centres unmarked) [CBK266590], the viability at 28.5 h, 10 µM worked out at 102%.

For `O=c1c2cn[nH]c2nc(SCc2ccc3c(c2)OCCO3)n1-c1ccccc1` [CBK266593], the viability at 28.5 h, 10 µM turned out to be 91.8%.

For `COc1cccc(CNCCO)c1OCc1ccccc1F` [CBK266594C], the viability at 28.5 h, 10 µM is 104%.

Take `COc1cc(CNc2ccc3[nH]c(=O)[nH]c3c2)cc(Br)c1OCC(=O)NC(C)(C)C` [CBK266596]: the viability at 28.5 h, 10 µM was 57%.

Consider `NC(=O)C1(N2CCCCC2)CCN(C2CC(=O)N(Cc3ccc(N4CCCC4=O)cc3)C2=O)CC1` (centres unmarked) [CBK266598], for which the viability at 28.5 h, 10 µM was 102%.

On to `COc1cccc2cc(C(=O)C3=C(O)C(=O)N(CCN4CCOCC4)C3c3cccc(Cl)c3)oc12` (centres unmarked) [CBK266599], for which the viability at 28.5 h, 10 µM stood at 100%.

On to `Cc1sc2nc(SCC(=O)Nc3ccc(S(N)(=O)=O)cc3)n(-c3ccccc3)c(=O)c2c1C` [CBK266600], for which the viability at 28.5 h, 10 µM was 108%.

For the molecule `CCOC(=O)CSc1nc2ccc(I)cc2c(=O)n1Cc1ccccc1` [CBK266602], the viability at 28.5 h, 10 µM was determined as 107%.

In the case of `Cc1ccc(OCc2nnc(SCC(=O)O)n2N)cc1` [CBK266603], the viability at 28.5 h, 10 µM amounted to 95.8%.

Consider `O=C(C1=C(O)C(=O)N(CCCN2CCOCC2)C1c1ccccn1)c1ccccc1` (centres unmarked) [CBK266604], for which the viability at 28.5 h, 10 µM was determined as 93.4%.

On to `OCCNc1nc(Nc2ccc(O)cc2)nc2ccccc12` [CBK266606C], for which the viability at 28.5 h, 10 µM turned out to be 97.3%.

In the case of `N#Cc1c(O)nc(SCC(=O)Nc2ccc(Oc3ccccc3)cc2)nc1-c1ccccc1` [CBK266607], the viability at 28.5 h, 10 µM is 118%.

For `C=CCn1c(COc2cccc3ccc(C)nc23)nnc1SC` [CBK266608], the viability at 28.5 h, 10 µM was 94.2%.

For the molecule `Cc1ccc(S(=O)(=O)NCCCO)cc1C(=O)O` [CBK266610], the viability at 28.5 h, 10 µM was 89.7%.

Consider `COc1ccc(CNC(=O)CSc2nnc(-c3ccncc3)n2C)cc1` [CBK266613], for which the viability at 28.5 h, 10 µM was 95%.

Take `C=CCOc1ccc(-c2nc3s/c(=C4\C(=O)N(Cc5ccccc5F)c5ccccc54)c(=O)n3n2)cc1` [CBK266615]: the viability at 28.5 h, 10 µM was 108%.

On to `C#CCOc1cc(Br)c(/C=C(/C#N)c2ccc([N+](=O)[O-])cc2)cc1OCC` [CBK266617], for which the viability at 28.5 h, 10 µM was 104%.

Turning to `Cn1cnnc1Sc1cc(N2CCN(S(=O)(=O)c3ccc(Cl)c(Cl)c3)CC2)ccc1[N+](=O)[O-]` [CBK266618], the viability at 28.5 h, 10 µM stood at 98.3%.

Turning to `COc1cc(C=O)ccc1OC(=O)c1nsc(Cl)c1Cl` [CBK266619], the viability at 28.5 h, 10 µM came to 89.1%.

For the molecule `O=C(CSc1nnc(-c2ccncc2)n1-c1ccccc1)Nc1ccc([N+](=O)[O-])cc1` [CBK266620], the viability at 28.5 h, 10 µM was found to be 96.3%.

In the case of `COc1ccc(OC)c(NC(=O)CSc2nnc(-c3ccncc3)n2C)c1` [CBK266623], the viability at 28.5 h, 10 µM was 103%.

With `O=C(Nc1ccc(S(=O)(=O)Nc2cncs2)cc1)c1ccc(-c2cccc(C(F)(F)F)c2)o1` [CBK266625], the viability at 28.5 h, 10 µM amounted to 89%.

In the case of `CCN(CC)CCn1c2ccccc2c2nc(C)sc21` [CBK266628C], the viability at 28.5 h, 10 µM was 100%.

As to `COc1ccccc1-c1nnc(SCc2ccc(C(=O)O)cc2)[nH]1` [CBK266631], the viability at 28.5 h, 10 µM stood at 99.5%.

Take `Cc1cc(S(=O)(=O)NCC(=O)O)ccc1F` [CBK266632]: the viability at 28.5 h, 10 µM was determined as 112%.

For the molecule `Cc1cc(C)c(OCC(=O)Nc2ccc3oc(-c4cncc(Br)c4)nc3c2)c(Cl)c1` [CBK266634], the viability at 28.5 h, 10 µM worked out at 100%.

For the molecule `OCCNc1nc(Nc2ccc(Cl)cc2)nc(N2CCCCC2)n1` [CBK266638], the viability at 28.5 h, 10 µM came to 97.3%.

Turning to `CC(=O)C(Sc1nc(N2CCOCC2)nc(N2CCOCC2)n1)C(=O)Nc1ccccc1` (centres unmarked) [CBK266643], the viability at 28.5 h, 10 µM was found to be 93%.

As for `CN(Cc1ccccc1)S(=O)(=O)c1ccc2c(c1)n(C)c(=O)n2C` [CBK266644], the viability at 28.5 h, 10 µM was found to be 95.6%.

`O=C(NCc1ccccn1)C1CCC(Cn2c(=S)[nH]c3ccccc3c2=O)CC1` (centres unmarked) [CBK266645]: the viability at 28.5 h, 10 µM came to 95.6%.

Turning to `CN1CCN(S(=O)(=O)c2ccc3c4c(cccc24)C(=O)N3)CC1` [CBK266647], the viability at 28.5 h, 10 µM worked out at 111%.

Regarding `N#Cc1c(NC(=O)CSc2nnc(N)s2)sc2c1CCCC2` [CBK266649], the viability at 28.5 h, 10 µM is 99.8%.

Take `CC(=O)NCCOc1nc(N(C)C)nc(N2CCOCC2)n1` [CBK266651]: the viability at 28.5 h, 10 µM was 96.7%.

For the molecule `Cc1ccc(-c2nnc(N3CCN(C(=O)CSc4nc[nH]n4)CC3)c3ccccc23)cc1` [CBK266652], the viability at 28.5 h, 10 µM is 107%.

With `O=C(CS(=O)(=O)Cc1ccccc1)Nc1ccc(S(=O)(=O)N2CCCCCC2)cc1` [CBK266653], the viability at 28.5 h, 10 µM is 98.8%.

For the molecule `Nc1nc(CN2C(=O)c3ccccc3C2=O)n[nH]1` [CBK266655], the viability at 28.5 h, 10 µM stood at 105%.

Turning to `COc1ccc(C2=NN(C(=O)CCC(=O)O)C(c3cccs3)C2)cc1OC` (centres unmarked) [CBK266656], the viability at 28.5 h, 10 µM was found to be 118%.

Regarding `CN(CCO)S(=O)(=O)c1cccc(C(=O)O)c1` [CBK266657], the viability at 28.5 h, 10 µM was found to be 89.4%.

Turning to `O=C(CS(=O)(=O)Cc1ccccc1)Nc1ccc(S(=O)(=O)N2CCOCC2)cc1` [CBK266658], the viability at 28.5 h, 10 µM is 88.8%.

For the molecule `OCCN1CCN(c2nc(NCC3CCCO3)c3ccccc3n2)CC1` (centres unmarked) [CBK266659C], the viability at 28.5 h, 10 µM stood at 99.1%.

Turning to `CC1CCCCC1NC(=O)CSc1nnc(CN2CCOCC2)n1C` (centres unmarked) [CBK266662], the viability at 28.5 h, 10 µM was determined as 102%.

As for `COc1ccccc1Nc1nc(N)c2ccccc2n1` [CBK266665C], the viability at 28.5 h, 10 µM amounted to 90.4%.

As for `CCN1CCN(C(=O)CN(CCc2ccccc2)S(C)(=O)=O)CC1` [CBK266666], the viability at 28.5 h, 10 µM worked out at 91.8%.

Regarding `OCCNc1nc(N2CCN(Cc3ccccc3)CC2)nc2ccccc12` [CBK266667C], the viability at 28.5 h, 10 µM is 92.5%.

Consider `CCN1CCN(C(=O)CN(Cc2ccccc2)S(=O)(=O)c2c(C)cc(C)cc2C)CC1` [CBK266670], for which the viability at 28.5 h, 10 µM is 98.1%.

As for `COc1ccccc1NC(=O)C(=O)NCCc1c[nH]c2ccccc12` [CBK266672], the viability at 28.5 h, 10 µM turned out to be 108%.

Consider `CCN1CCN(S(=O)(=O)c2cccc([N+](=O)[O-])c2)CC1` [CBK266675], for which the viability at 28.5 h, 10 µM turned out to be 83.8%.

Take `O=[N+]([O-])c1cccc(S(=O)(=O)NCCCn2ccnc2)c1` [CBK266676]: the viability at 28.5 h, 10 µM amounted to 91.1%.

As for `COc1ccc2nc(NC(=N)NC(=S)Nc3ccc(Cl)cc3)nc(C)c2c1` [CBK266677], the viability at 28.5 h, 10 µM came out at 88.3%.

In the case of `O=C(NCc1cccnc1)C1CCC(Cn2c(=S)[nH]c3ccccc3c2=O)CC1` (centres unmarked) [CBK266678], the viability at 28.5 h, 10 µM came out at 87.9%.

On to `COc1cc(C)nc(NC(=O)COc2ccc(Cl)cc2C)n1` [CBK266681], for which the viability at 28.5 h, 10 µM was 106%.

Take `CCN1CCN(c2ccc(NC(=O)c3ccc(OCc4ccccc4)cc3)cc2Cl)CC1` [CBK266683]: the viability at 28.5 h, 10 µM was determined as 78%.

By viability is commonly meant a read-out of living cells in per cent, often relative to untreated cells.

The values above are taken from article PMC12040169 (PLOS Biology, 2025).
